#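 Briefly, cells in 96-well plates were exposed to five compound concentrations for 48 h, and endpoints were estimated by linear interpolation. GI50 is the concentration that inhibits growth by half.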 Activity calls are given as the source filed them. Rule as the data show it: active = GI50 up to about 1.1 µM and inactive = higher.
# Tests used:
# Assay in all cases: NCI anticancer screen, dose series, 48 h
# IGROV-1 = tested on: IGROV-1
# KM12 = tested on: KM12
# OVCAR-8 = tested on: OVCAR-8
# HL-60 = tested on: HL-60
# HT-29 = tested on: HT-29
# TK-10 = tested on: TK-10
# HOP-92 = tested on: HOP-92
# Malme-3M = tested on: Malme-3M
# SK-MEL-5 = tested on: SK-MEL-5
# K562 = tested on: K562
# M14 = tested on: M14
# UACC-62 = tested on: UACC-62
# M19-MEL = tested on: M19-MEL
# HCT-116 = tested on: HCT-116
# MOLT-4 = tested on: MOLT-4
# DMS-273 = tested on: DMS-273
# HCT-15 = tested on: HCT-15
# CAKI-1 = tested on: CAKI-1
# DMS-114 = tested on: DMS-114
# SNB-19 = tested on: SNB-19
# NCI-H460 = tested on: NCI-H460
# SNB-75 = tested on: SNB-75
# UACC-257 = tested on: UACC-257
# OVCAR-4 = tested on: OVCAR-4
# SK-MEL-28 = tested on: SK-MEL-28
# OVCAR-3 = tested on: OVCAR-3
# SF-539 = tested on: SF-539
# RXF 393 = tested on: RXF 393
# OVCAR-5 = tested on: OVCAR-5
# A549 = tested on: A549
# KM-20L2 = tested on: KM-20L2
# HOP-62 = tested on: HOP-62
# EKVX = tested on: EKVX
# SF-295 = tested on: SF-295
# DLD-1 = tested on: DLD-1
# SN12C = tested on: SN12C
# COLO 205 = tested on: COLO 205
# HCC 2998 = tested on: HCC 2998
# XF498 = tested on: XF498
# SNB-78 = tested on: SNB-78
# LOX IMVI = tested on: LOX IMVI
# HOP-18 = tested on: HOP-18
# ACHN = tested on: ACHN
# NCI-H226 = tested on: NCI-H226
# CCRF-CEM = tested on: CCRF-CEM
# SK-OV-3 = tested on: SK-OV-3
# NCI-H23 = tested on: NCI-H23
# UO-31 = tested on: UO-31
# SF-268 = tested on: SF-268
# A498 = tested on: A498
# 786-0 = tested on: 786-0
# SK-MEL-2 = tested on: SK-MEL-2
# RPMI-8226 = tested on: RPMI-8226
# SW-620 = tested on: SW-620
# SR = tested on: SR
# U-251 = tested on: U-251
# NCI-H522 = tested on: NCI-H522
# NCI/ADR-RES = tested on: NCI/ADR-RES
# MCF7 = tested on: MCF7
smiles,measurement,setting,value
COC(=O)C(C(=O)C(=O)Nc1ccc([N+](=O)[O-])cc1[N+](=O)[O-])c1nc2ccc(Cl)cc2nc1O (centres undefined),GI50,IGROV-1,> 100 µM (inactive)
same,GI50,KM12,> 100 µM (inactive)
same,GI50,OVCAR-8,> 100 µM (inactive)
same,GI50,HL-60,> 100 µM (inactive)
same,GI50,HT-29,> 100 µM (inactive)
same,GI50,TK-10,> 100 µM (inactive)
same,GI50,HOP-92,> 100 µM (inactive)
same,GI50,Malme-3M,> 100 µM (inactive)
same,GI50,SK-MEL-5,99.8 µM (inactive)
same,GI50,K562,> 100 µM (inactive)
same,GI50,M14,> 100 µM (inactive)
same,GI50,UACC-62,> 100 µM (inactive)
same,GI50,M19-MEL,> 100 µM (inactive)
same,GI50,HCT-116,> 100 µM (inactive)
same,GI50,MOLT-4,73.1 µM (inactive)
same,GI50,DMS-273,> 100 µM (inactive)
same,GI50,HCT-15,> 100 µM
same,GI50,CAKI-1,> 100 µM (inactive)
same,GI50,DMS-114,72.4 µM (inactive)
same,GI50,SNB-19,> 100 µM (inactive)
same,GI50,NCI-H460,> 100 µM (inactive)
same,GI50,SNB-75,68.2 µM (inactive)
same,GI50,UACC-257,> 100 µM (inactive)
same,GI50,OVCAR-4,> 100 µM (inactive)
same,GI50,SK-MEL-28,> 100 µM (inactive)
same,GI50,OVCAR-3,66.4 µM (inactive)
same,GI50,SF-539,> 100 µM (inactive)
same,GI50,RXF 393,30.5 µM (inactive)
same,GI50,OVCAR-5,> 100 µM (inactive)
same,GI50,A549,> 100 µM (inactive)
same,GI50,KM-20L2,> 100 µM (inactive)
same,GI50,HOP-62,> 100 µM (inactive)
same,GI50,EKVX,40.8 µM (inactive)
same,GI50,SF-295,> 100 µM (inactive)
same,GI50,DLD-1,> 100 µM (inactive)
same,GI50,SN12C,> 100 µM (inactive)
same,GI50,COLO 205,> 100 µM (inactive)
same,GI50,HCC 2998,> 100 µM (inactive)
same,GI50,XF498,> 100 µM (inactive)
same,GI50,SNB-78,> 100 µM (inactive)
same,GI50,LOX IMVI,> 100 µM (inactive)
same,GI50,HOP-18,59.3 µM (inactive)
same,GI50,ACHN,65 µM (inactive)
same,GI50,NCI-H226,79.1 µM (inactive)
same,GI50,CCRF-CEM,> 100 µM (inactive)
same,GI50,SK-OV-3,> 100 µM (inactive)
same,GI50,NCI-H23,77.8 µM (inactive)
same,GI50,UO-31,41.1 µM (inactive)
same,GI50,SF-268,> 100 µM (inactive)
same,GI50,A498,44.2 µM (inactive)
same,GI50,786-0,> 100 µM (inactive)
same,GI50,SK-MEL-2,> 100 µM (inactive)
same,GI50,RPMI-8226,89.9 µM (inactive)
same,GI50,SW-620,> 100 µM (inactive)
c1ccc2cc(-c3cc4ccccc4s3)ccc2c1,GI50,IGROV-1,> 100 µM (inactive)
same,GI50,KM12,> 100 µM (inactive)
same,GI50,OVCAR-8,> 100 µM (inactive)
same,GI50,HL-60,> 100 µM (inactive)
same,GI50,HT-29,> 100 µM (inactive)
same,GI50,TK-10,> 100 µM (inactive)
same,GI50,HOP-92,> 100 µM (inactive)
same,GI50,Malme-3M,> 100 µM (inactive)
same,GI50,SK-MEL-5,> 100 µM (inactive)
same,GI50,K562,> 100 µM (inactive)
same,GI50,M14,> 100 µM (inactive)
same,GI50,SR,> 100 µM (inactive)
same,GI50,UACC-62,> 100 µM (inactive)
same,GI50,M19-MEL,> 100 µM (inactive)
same,GI50,HCT-116,> 100 µM (inactive)
same,GI50,MOLT-4,38.2 µM (inactive)
same,GI50,DMS-273,> 100 µM (inactive)
same,GI50,HCT-15,> 100 µM
same,GI50,CAKI-1,> 100 µM (inactive)
same,GI50,DMS-114,> 100 µM (inactive)
same,GI50,SNB-19,> 100 µM (inactive)
same,GI50,NCI-H460,> 100 µM (inactive)
same,GI50,SNB-75,23.1 µM (inactive)
same,GI50,UACC-257,> 100 µM (inactive)
same,GI50,OVCAR-4,> 100 µM (inactive)
same,GI50,SK-MEL-28,> 100 µM (inactive)
same,GI50,OVCAR-3,> 100 µM (inactive)
same,GI50,SF-539,> 100 µM (inactive)
same,GI50,OVCAR-5,> 100 µM (inactive)
same,GI50,A549,> 100 µM (inactive)
same,GI50,KM-20L2,> 100 µM (inactive)
same,GI50,HOP-62,> 100 µM (inactive)
same,GI50,EKVX,> 100 µM (inactive)
same,GI50,SF-295,> 100 µM (inactive)
same,GI50,DLD-1,> 100 µM (inactive)
same,GI50,SN12C,> 100 µM (inactive)
same,GI50,COLO 205,> 100 µM (inactive)
same,GI50,HCC 2998,> 100 µM (inactive)
same,GI50,XF498,> 100 µM (inactive)
same,GI50,SNB-78,> 100 µM (inactive)
same,GI50,LOX IMVI,> 100 µM (inactive)
same,GI50,HOP-18,> 100 µM (inactive)
same,GI50,ACHN,> 100 µM (inactive)
same,GI50,NCI-H226,> 100 µM (inactive)
same,GI50,CCRF-CEM,> 100 µM (inactive)
same,GI50,SK-OV-3,22.1 µM (inactive)
same,GI50,NCI-H23,> 100 µM (inactive)
same,GI50,UO-31,> 100 µM (inactive)
same,GI50,SF-268,> 100 µM (inactive)
same,GI50,U-251,> 100 µM (inactive)
same,GI50,NCI-H522,> 100 µM (inactive)
same,GI50,A498,> 100 µM (inactive)
same,GI50,786-0,> 100 µM (inactive)
same,GI50,SK-MEL-2,> 100 µM (inactive)
same,GI50,RPMI-8226,> 100 µM (inactive)
same,GI50,SW-620,> 100 µM (inactive)
CC[C@]12C=CCN3CC[C@@]4(c5ccc(OC)cc5N(C)[C@H]4[C@@](O)(C(=O)OC)[C@@H]1OC(C)=O)[C@@H]32,GI50,IGROV-1,> 185 µM (inactive)
same,GI50,KM12,> 200 µM (inactive)
same,GI50,OVCAR-8,19.5 µM (inactive)
same,GI50,HL-60,89.3 µM (inactive)
same,GI50,HT-29,> 200 µM (inactive)
same,GI50,HOP-92,46.2 µM (inactive)
same,GI50,NCI/ADR-RES,156 µM (inactive)
same,GI50,Malme-3M,> 200 µM (inactive)
same,GI50,SK-MEL-5,99.5 µM (inactive)
same,GI50,K562,131 µM (inactive)
same,GI50,UACC-62,143 µM (inactive)
same,GI50,M19-MEL,57.5 µM (inactive)
same,GI50,HCT-116,172 µM (inactive)
same,GI50,MOLT-4,81.3 µM (inactive)
same,GI50,DMS-273,> 140 µM (inactive)
same,GI50,HCT-15,75.3 µM
same,GI50,CAKI-1,15.5 µM (inactive)
same,GI50,DMS-114,140 µM (inactive)
same,GI50,SNB-19,> 200 µM (inactive)
same,GI50,NCI-H460,177 µM (inactive)
same,GI50,SNB-75,51.3 µM (inactive)
same,GI50,UACC-257,172 µM (inactive)
same,GI50,OVCAR-4,35.4 µM (inactive)
same,GI50,SK-MEL-28,> 200 µM (inactive)
same,GI50,OVCAR-3,102 µM (inactive)
same,GI50,SF-539,> 200 µM (inactive)
same,GI50,RXF 393,96.8 µM (inactive)
same,GI50,OVCAR-5,> 200 µM (inactive)
same,GI50,A549,162 µM (inactive)
same,GI50,KM-20L2,> 101 µM (inactive)
same,GI50,HOP-62,171 µM (inactive)
same,GI50,EKVX,> 151 µM (inactive)
same,GI50,SF-295,152 µM (inactive)
same,GI50,DLD-1,> 200 µM (inactive)
same,GI50,SN12C,> 183 µM (inactive)
same,GI50,COLO 205,> 185 µM (inactive)
same,GI50,HCC 2998,> 200 µM (inactive)
same,GI50,XF498,> 172 µM (inactive)
same,GI50,SNB-78,195 µM (inactive)
same,GI50,LOX IMVI,> 200 µM (inactive)
same,GI50,HOP-18,> 200 µM (inactive)
same,GI50,NCI-H226,132 µM (inactive)
same,GI50,CCRF-CEM,132 µM (inactive)
same,GI50,SK-OV-3,> 200 µM (inactive)
same,GI50,NCI-H23,> 171 µM (inactive)
same,GI50,UO-31,59 µM (inactive)
same,GI50,SF-268,138 µM (inactive)
same,GI50,MCF7,147 µM (inactive)
same,GI50,U-251,> 200 µM (inactive)
same,GI50,NCI-H522,97.9 µM (inactive)
same,GI50,A498,102 µM (inactive)
same,GI50,SK-MEL-2,182 µM (inactive)
same,GI50,RPMI-8226,93.8 µM (inactive)
same,GI50,SW-620,> 200 µM (inactive)
